Test results reported in EP4371976B1, “IONIZABLE LIPIDS AND LIPID NANOPARTICLES CONTAINING THEREOF” (Certest Biotec, S.L., priority 2022, dated 2024).

Legend:
[1] = Apparent pKa of LNPs comprising the ionizable lipid (Table 6); conditions: standard formulation 50:10:38.5:1.5
[2] = Size distribution, polydispersity and Z-potential of LNPs by dynamic light scattering (Malvern Zetasizer); assay type: physicochemical; conditions: LNPs, standard formulation 50:10:38.5:1.5; DLS
Experimental: (§1) The LNP solution was then adjusted to a final concentration of mRNA of 100 µg/ml. Size distribution, polydispersity and Z-potential were measured by dynamic light scattering (DLS) using Malvern Zetasizer Advance Lab Blue Label. RNA encapsulation was assessed by Quant-IT® Ribogreen following the manufacturer's instructions.

[3] = RNA encapsulation efficiency of LNPs by Quant-IT Ribogreen; assay type: physicochemical; conditions: for Encaps. efficiency (%): LNPs with luciferase mRNA, ionizable lipid:non-cationic lipid:sterol:PEG-modified lipid 50:10:38.5:1.5, percentage of RNA entrapped in the LNP
Experimental: The mRNA aqueous solution was then carefully added to the ethanol solution, and the resulted solution was homogenized by pipetting up and down for 4-5 times. The resulting LNPs were immediately diluted 1:1 with Tris buffer and dialyzed overnight against Tris buffer containing 15% sucrose. The resulting LNP solution was then collected, and the encapsulated mRNA was assessed by Quant-IT® Ribogreen (Invitrogen R11490) following the manufacturer's instructions.
as §1

CCCCCCCCOC(=O)CCSCCC(NC(=O)C(CCCCCC)CCCCCCCC)C(=O)NCCCN1CCOCC1 (stereo not shown) [VC-LC-0176]
Apparent pKa [1]: 5.77 | Z Potential (± D.E.) [mV] [2]: -17.58 mV | Encaps. efficiency (%) [3]: 47.36%

CCCCCCCCCCCCCCCCOC(=O)CCSCCC(NC(=O)C(CCCCCC)CCCCCCCC)C(=O)NCCN1CCN(C)CC1 (stereo not shown) [VC-LC-0185]
Apparent pKa [1]: 5.85 | Z Potential (± D.E.) [mV] [2]: -1.54 mV | Encaps. efficiency (%) [3]: 70.97%

CCCCCCCCC(CCCCCC)C(=O)NC(CCSCCC(=O)OCCCCCCC)C(=O)NCCCN(CCO)CCO (stereo not shown) [VC-LC-0207]
Apparent pKa [1]: 7.18 | P.D.I. [2]: 0.2 | Particle size/ Ø (nm) [2]: 185.7 nm | Z Potential (± D.E.) [mV] [2]: -0.83 mV | Encaps. efficiency (%) [3]: 93.61%

CCCCCCCCCCCCCCCCOC(=O)CCSCCC(NC(=O)C(CCCCCC)CCCCCCCC)C(=O)NCCCN1CCCC1 (stereo not shown) [VC-LC-0248]
Apparent pKa [1]: 7.24 | P.D.I. [2]: 0.35 | Particle size/ Ø (nm) [2]: 248 nm | Z Potential (± D.E.) [mV] [2]: 4.52 mV | Encaps. efficiency (%) [3]: 89.76%

CCCCCCCCCCCCCOC(=O)CCSCCC(NC(=O)C(CCCCCC)CCCCCCCC)C(=O)NCCCn1ccnc1 (stereo not shown) [VC-LC-0256]
Apparent pKa [1]: 5.91 | P.D.I. [2]: 0.12 | Particle size/ Ø (nm) [2]: 184.3 nm | Z Potential (± D.E.) [mV] [2]: -15.91 mV | Encaps. efficiency (%) [3]: 92.30%

CCCCCCCCC(CCCCCC)C(=O)NC(CCSCCC(=O)OCC(CC)CCCC)C(=O)NCCCn1ccnc1 (stereo not shown) [VC-LC-0259]
Apparent pKa [1]: 6.21 | P.D.I. [2]: 0.14 | Particle size/ Ø (nm) [2]: 138.8 nm | Z Potential (± D.E.) [mV] [2]: -8.47 mV | Encaps. efficiency (%) [3]: 41.89%

CCCCCCCCC(CCCCCC)C(=O)NC(CCSCCC(=O)OCCCCCC)C(=O)NCCCn1ccnc1 (stereo not shown) [VC-LC-0268]
Apparent pKa [1]: 6.18 | P.D.I. [2]: 0.14 | Particle size/ Ø (nm) [2]: 173 nm | Z Potential (± D.E.) [mV] [2]: -10.85 mV | Encaps. efficiency (%) [3]: 29.52%

CCCCCCCC/C=C\CCCCCCCC(=O)NC(CCSCCC(=O)OCCCCCCCC(C)C)C(=O)NCCCN(CCO)CCO (stereo not shown) [VC-LC-0292]
Apparent pKa [1]: 7.06 | P.D.I. [2]: 0.18 | Particle size/ Ø (nm) [2]: 177.7 nm | Z Potential (± D.E.) [mV] [2]: 7.79 mV | Encaps. efficiency (%) [3]: 94.63%

CCCCCCCCCCCCCCOC(=O)CCSCC(CC(=O)NCCCn1ccnc1)C(=O)OC(CCCCCCCC)CCCCCCCC (stereo not shown) [VC-LC-0299]
Apparent pKa [1]: 6.09 | P.D.I. [2]: 0.15 | Particle size/ Ø (nm) [2]: 193.3 nm | Z Potential (± D.E.) [mV] [2]: -13.45 mV | Encaps. efficiency (%) [3]: 57.64%

CCCCCCCCC(CCCCCCCC)OC(=O)C(CSCCC(=O)OCCCCCC)CC(=O)NCCCn1ccnc1 (stereo not shown) [VC-LC-0306]
Apparent pKa [1]: 5.70 | P.D.I. [2]: 0.09 | Particle size/ Ø (nm) [2]: 184.2 nm | Z Potential (± D.E.) [mV] [2]: -12.78 mV | Encaps. efficiency (%) [3]: 45.62%

CCCCCCCC/C=C\CCCCCCCC(=O)NC(CCSCC(=O)OCCCCCCCCCCCCC)C(=O)NCCCN1CCOCC1 (stereo not shown) [VC-LC-0338]
Apparent pKa [1]: 6.64 | P.D.I. [2]: 0.14 | Particle size/ Ø (nm) [2]: 146.3 nm | Z Potential (± D.E.) [mV] [2]: -5.38 mV | Encaps. efficiency (%) [3]: 62.80%

CCCCCCCC/C=C\CCCCCCCCOC(=O)CCSCCC(NC(=O)C(CCCCCC)CCCCCCCC)C(=O)NCCCN1CCOCC1 (stereo not shown) [VC-LC-0361]
Apparent pKa [1]: 5.29 | P.D.I. [2]: 0.18 | Particle size/ Ø (nm) [2]: 169.3 nm | Z Potential (± D.E.) [mV] [2]: -12.18 mV | Encaps. efficiency (%) [3]: 41.05%

CCCCCCCCC(CCCCCCCC)OC(=O)C(CCSCCC(=O)OCCCCCCCC(C)C)C(=O)NCCCn1ccnc1 (stereo not shown) [VC-LC-0364]
Apparent pKa [1]: 6.38 | P.D.I. [2]: 0.13 | Particle size/ Ø (nm) [2]: 116.8 nm | Z Potential (± D.E.) [mV] [2]: -14.33 mV | Encaps. efficiency (%) [3]: 78.29%

CCCCCCCCC(CCCCCCCC)OC(=O)C(CCSCCC(=O)OCC(CC)CCCC)C(=O)NCCCn1ccnc1 (stereo not shown) [VC-LC-0365]
Apparent pKa [1]: 6.33 | P.D.I. [2]: 0.24 | Particle size/ Ø (nm) [2]: 124.1 nm | Z Potential (± D.E.) [mV] [2]: -17.43 mV | Encaps. efficiency (%) [3]: 66.86%

CCCCCCCCCCCCCCCCCCOC(=O)CCSCCC(NC(=O)CCCCCCCCCCCCCCCCC)C(=O)NCCCN1CCOCC1 (stereo not shown) [VC-LC-0380]
P.D.I. [2]: 0.25 | Particle size/ Ø (nm) [2]: 170.6 nm | Z Potential (± D.E.) [mV] [2]: -17.08 mV | Encaps. efficiency (%) [3]: 71.74%

CCCCCCCCCCCCCCCCCC(=O)NC(CCSCCC(=O)OCCCCCCCCCCCCC)C(=O)NC1CCN(C)CC1 (stereo not shown) [VC-LC-0435]
P.D.I. [2]: 0.2 | Particle size/ Ø (nm) [2]: 182.6 nm | Z Potential (± D.E.) [mV] [2]: 8.58 mV | Encaps. efficiency (%) [3]: 99.22%

CCCCCCCC#CCOC(=O)CCSCCC(NC(=O)CCCCCCCCCCCCCCCCC)C(=O)NC1CCN(C)CC1 (stereo not shown) [VC-LC-0437]
P.D.I. [2]: 0.23 | Particle size/ Ø (nm) [2]: 152 nm | Z Potential (± D.E.) [mV] [2]: 7.76 mV | Encaps. efficiency (%) [3]: 99.92%

CCCCCCCC/C=C\CCCCCCCCOC(=O)CCSCCC(C(=O)NC1CCN(C)CC1)C(=O)OC(CCCCCCCC)CCCCCCCC (stereo not shown) [VC-LC-0443]
P.D.I. [2]: 0.13 | Particle size/ Ø (nm) [2]: 181.3 nm | Z Potential (± D.E.) [mV] [2]: -2.92 mV | Encaps. efficiency (%) [3]: 86.01% | Encaps. efficiency ([3]; Table 8, LNP 50:10:38.5:1.5, luciferase mRNA): 86.01%

CCCCCCCCCCCCCOC(=O)CCSCC(CC(=O)NC1CCN(C)CC1)C(=O)OCC(CCCCCC)CCCCCCCC (stereo not shown) [VC-LC-0524]
P.D.I. [2]: 0.15 | Particle size/ Ø (nm) [2]: 129.9 nm | Z Potential (± D.E.) [mV] [2]: 3.83 mV | Encaps. efficiency (%) [3]: 97.01%

CCCCCCCCC(CCCCCC)COC(=O)C(CSCCC(=O)OCCCCCCCC(C)C)CC(=O)NC1CCN(C)CC1 (stereo not shown) [VC-LC-0526]
P.D.I. [2]: 0.16 | Particle size/ Ø (nm) [2]: 124.7 nm | Z Potential (± D.E.) [mV] [2]: 3.68 mV | Encaps. efficiency (%) [3]: 97.90%

CCCCCCCCCCCCOC(=O)CCSCC(CC(=O)NC1CCN(C)CC1)C(=O)OCC(CCCCCC)CCCCCCCC (stereo not shown) [VC-LC-0528]
P.D.I. [2]: 0.2 | Particle size/ Ø (nm) [2]: 137.4 nm | Z Potential (± D.E.) [mV] [2]: 4.55 mV | Encaps. efficiency (%) [3]: 98.83%

CCCCCCCCCCCCCCCCCCOC(=O)CCSCC(CC(=O)NC1CCN(C)CC1)C(=O)OCC(CCCCCC)CCCCCCCC (stereo not shown) [VC-LC-0530]
P.D.I. [2]: 0.26 | Particle size/ Ø (nm) [2]: 164 nm | Z Potential (± D.E.) [mV] [2]: 7.65 mV | Encaps. efficiency (%) [3]: 97.41%

CCCCCCCCCCCCCCCCOC(=O)CCSCC(CC(=O)NC1CCN(C)CC1)C(=O)OCC(CCCCCC)CCCCCCCC (stereo not shown) [VC-LC-0531]
P.D.I. [2]: 0.19 | Particle size/ Ø (nm) [2]: 158.6 nm | Z Potential (± D.E.) [mV] [2]: 9.15 mV | Encaps. efficiency (%) [3]: 98.54%

CCCCCCCCCCCCCCCCCCCCCCOC(=O)CCSCC(CC(=O)NC1CCN(C)CC1)C(=O)OCC(CCCCCC)CCCCCCCC (stereo not shown) [VC-LC-0533]
P.D.I. [2]: 0.19 | Particle size/ Ø (nm) [2]: 178.1 nm | Z Potential (± D.E.) [mV] [2]: 5.74 mV | Encaps. efficiency (%) [3]: 98.35%

CCCCCCCCCCCCCOC(=O)CCSCCC(NC(=O)C(CCCCCCCC)CCCCCCCCCC)C(=O)NC1CCN(C)CC1 (stereo not shown) [VC-LC-0556]
P.D.I. [2]: 0.14 | Particle size/ Ø (nm) [2]: 156.7 nm | Z Potential (± D.E.) [mV] [2]: -7.57 mV | Encaps. efficiency (%) [3]: 54.53%

CCCCCCCCCCCCOC(=O)CCSCCC(C(=O)NCCCN1CCOCC1)C(=O)OCC(CCCCCC)CCCCCCCC (stereo not shown) [VC-LC-0609]
P.D.I. [2]: 0.16 | Particle size/ Ø (nm) [2]: 168.6 nm | Z Potential (± D.E.) [mV] [2]: -20.42 mV | Encaps. efficiency (%) [3]: 54.21%
